Test results taken from paper PMC10771296, “Plectasin: from evolution to truncation, expression, and better druggability” (Frontiers in Microbiology, 2023).
Converted amounts (≈) assume the structure as drawn. Like-named read-outs stand apart in the source and are kept apart here. Marks after values point to notes of the source that are not given here.

Legend:
[1] = test system: S. aureus ATCC43300; experiment: MIC/MBC, micro broth dilution; type: cell-based, Staphylococcus aureus; details: Staphylococcus aureus, ATCC43300; micro broth dilution, 1 × 10^5 CFU/mL, repeated thrice; read-out: MIC
Method: The minimum inhibitory concentration (MIC) of the peptides was assayed using the micro broth dilution method, which is an important indicator of the antibacterial activity of the AMPs ([Liu et al., 2021]). […] The MIC was defined as the lowest concentration of ones at which no visible bacterial growth was observed. All the assays were repeated thrice.

[2] = test system: S. aureus ATCC43300; experiment: Time-kill curve (bacterial kinetics in vitro); type: cell-based, Staphylococcus aureus; details: 2× MIC, 1 × 10^5 CFU/mL, 37°C, 250 rpm, colony counting
Method: The bactericidal efficiency of Ple-AB was evaluated by plotting a time-kill curve ([Zheng et al., 2021]). Single colonies of the S. aureus ATCC43300 were picked for overnight activation, and 1% were transferred and incubated at 37°C until the logarithmic growth phase. […] Samples of 100 uL of bacteria were taken at 0, 0.5, 1, 2, 4, 6, 8, 10, 12, and 24 h, diluted, and coated to count the number of single colonies and plot the time-killing curve.

[3] = test system: S. aureus ATCC43300; details: ref Yang et al., 2019; cited from earlier work
Source text: (§1) Table 3 The MIC values of Ple-AB. | column: MIC (μg/mL) / Plectasin

[4] = test system: E. coli O157; details: ref Yang et al., 2019; cited from earlier work
Source text: as §1

[5] = test system: S. aureus E48; details: ref Yang et al., 2019; cited from earlier work
Source text: as §1

[6] = test system: S. aureus CVCC546; details: ref Yang et al., 2019; cited from earlier work
Source text: as §1

[7] = test system: P. aeruginsoa CICC21630; details: ref Yang et al., 2019; cited from earlier work
Source text: as §1

[8] = test system: mouse erythrocytes; details: 256 μg/mL; ref Zhang et al., 2011; Yang et al., 2019; cited from earlier work
Source text: The length, positive charge number, and amphiphilicity of the derived peptide Ple-AB were altered, reducing the peptide chain length from 40 to 36 amino acids, reducing the molecular weight from 4407.99 to 4006.66 Da, increasing the charge number from +1 to +3, and increasing the hydrophobicity from −0.695 to −0.469 (Table 1).

[9] = test system: S. aureus ATCC43300; details: ref Lei et al., 2018; cited from earlier work
Source text: Clinical applications require drugs that exhibi ...

Row | Compound | MIC [1] [µg/mL] | Time to kill all the strains [2] [h] | MIC [3] | MIC [4] | MIC [5] | MIC [6] | MIC [7] | Hemolytic activity [8] [%] | Time of co-incubation with simulated intestinal fluid after which activity is lost [9] [min]
1 | CN[C@H](CC(C)C)C(=O)N[C@H]1C(=O)N[C@@H](CC(N)=O)C(=O)N[C@H]2C(=O)N[C@H]3C(=O)N[C@H](C(=O)N[C@H](C(=O)O)c4cc(O)cc(O)c4-c4cc3ccc4O)[C@H](O)c3ccc(c(Cl)c3)Oc3cc2cc(c3O[C@@H]2O[C@H](CO)[C@@H](O)[C@H](O)[C@H]2O[C@H]2C[C@](C)(N)[C@H](O)[C@H](C)O2)Oc2ccc(cc2Cl)[C@H]1O [vancomycin, reference compound] | 1 (≈ 0.69 µM) | 6 | – | – | – | – | – | – | –
2 | CC[C@H](C)[C@@H]1NC(=O)[C@H](CO)NC(=O)[C@H](CCCCN)NC(=O)[C@@H]2CSSC[C@@H](C(=O)N[C@@H](Cc3ccc(O)cc3)C(=O)O)NC(=O)[C@H](CCCCN)NC(=O)[C@@H]3CSSC[C@H](NC(=O)[C@H](CCC(N)=O)NC(=O)[C@H](CCSC)NC(=O)[C@H](CC(=O)O)NC(=O)[C@H](CC(=O)O)NC(=O)[C@H](CCC(=O)O)NC(=O)[C@H](CC(=O)O)NC(=O)[C@H](Cc4c[nH]c5ccccc45)NC(=O)[C@@H]4CCCN4C(=O)CNC(=O)[C@H](CC(N)=O)NC(=O)[C@@H](NC(=O)CNC(=O)[C@H](Cc4ccccc4)NC(=O)CN)CSSC[C@H](NC(=O)[C@H](Cc4ccc(O)cc4)NC(=O)CNC(=O)CNC(=O)[C@H](CCCCN)NC(=O)[C@H](Cc4ccc(O)cc4)NC(=O)CNC(=O)[C@H](CCCCN)NC1=O)C(=O)N[C@@H](C)C(=O)N[C@@H](CCCCN)C(=O)NCC(=O)NCC(=O)N[C@@H](Cc1ccccc1)C(=O)N[C@@H](C(C)C)C(=O)N3)C(=O)N[C@@H](Cc1c[nH]cn1)C(=O)N[C@@H](CC(N)=O)C(=O)N[C@@H](Cc1c[nH]cn1)C(=O)N2 [Plectasin] | – | – | 4^a μg/mL | >128 ^a μg/mL | 4^a μg/mL | 16^a μg/mL | >128 ^a μg/mL | 68 | 15 to 30
